# Values quoted from earlier work in patent US7473804B2, “Polymorphs of atomoxetine hydrochloride” (Teva Pharmaceutical Fine Chemicals s.r.l., priority 2004, dated 2009).
# Conditions: as disclosed in U.S. Pat. No. 4,018,895, EP 0 052 492, EP 0 721 777
smiles,measurement,value
"CNCC[C@@H](Oc1ccccc1C)c1ccccc1 [Atomoxetine, (R)(−)-N-methyl-3-(2-methylphenoxy)-3-phenylpropylamine]",effectiveness relative to the (+)-enantiomer,about nine times more effective than the (+)-enantiomer
same,effectiveness relative to the racemic mixture (tomoxetine),about twice as effective as the racemic mixture
